Assay results reported in patent US7196112B2, “Cell adhesion inhibitors” (Biogen Idec MA Inc., priority 2004, dated 2007).
Each block holds one compound with its values, some of them ahead of it.

Legend:
α4β1 [1] = target: T1, α4β1 (Homo sapiens, UniProt P05556+P13612); assay: Equilibrium binding on Jurkat cells, competition with 35S-B as reporter
Protocol: The α4β1-expressing Jurkat human T-cell line (a gift from S. Burakoff, Dana Farber Cancer Institute, Boston, Mass.), and the α4β7-expressing human B-cell line, JY (American Type Tissue Collection, Rockville, Md.) were maintained in culture at 37° C. in RPMI-1640 medium supplemented with 10% fetal bovine serum (FBS). K562 cell lines transfected with either the human α1-integrin chain (Phil Gotwells, Biogen, Inc) or with the human α2 integrin chain (a gift from M. Hemler, Dana Farber Cancer Institute, Boston, Mass.) were maintained in RPMI-1640 medium supplemented with 10% FBS and 1 mg/mL G418. All cells were periodically monitored for high integrin surface expression by FACS analysis. The binding of the various inhibitors to α4β1 were assessed on Jurkat cells by competition using radioactive ^35S-B as a reporter for a 1 occupancy. Jurkat cells were pelleted by centrifugation, washed two times with TBS (50 mM Tris HCl, 150 mM NaCl, 0.1% bovine serum albumin, 2 mM glucose, 10 mM HEPES pH 7.4), suspended at approximately 2×10^6 cells/mL in TBS, and counted using a Neubauer hemocytometer. The cells were further diluted 2×10^6 cells/mL with TBS containing 1 mM CaCl2 and 1 mM MgCl2 and treated with serial dilutions of test compound for 1 hour, and then 5 nM ^35S-B, an amount sufficient to bind all unoccupied receptors, was added for 10 minutes before measuring the bound counts. The cells were then pelleted by centrifugation, resuspended in 100 μL of TBS plus Mn^2+, and transferred to a scintillation vial containing 2.9 mL of ScintiVerse II (Fisher Scientific). Cell-associated radioactivity was quantified by scintillation counting. All studies were performed in siliconized 1.5 mL eppendorf tubes with a standard 1 mL sample volume. Each condition was tested in at least two independent studies. Non-specific binding of ^35S-B to cells was assessed at each cell density and ^35S-B concentration in TBS but in the absence of added metal ion. Specific counts bound were calculated by subtracting non specific counts from total counts bound. Counts bound under these conditions measures integrin that is not occupied by the test compound and is therefore free to bind the ^35S-B. The competition format was also used for kinetic binding studies. Binding and dissociation constants were calculated from α4β1 that remained free to bind the ^35S-B after treatment with test compound.
The affinities of the PEGylated inhibitors for α4β1 were calculated from association and disassociation rate constants using a kinetic analysis. For these studies, Jurkat cells expressing α4β1 (75,000 copies/cell) were treated with the inhibitors and then ^35S-B was added as a probe to detect free α4β1. The levels of bound inhibitor were calculated from a measure of total ^35S-B bound in the absence of added inhibitor and counts bound following inhibitor treatment. […] IC50 values were calculated from equilibrium binding studies on Jurkat cells through competition using ^35S-B as a reporter in buffer containing 1 mM Ca^2+ and 1 mM Mg^2+.
Second, the effect of protein binding on the affinity of the PEGylated inhibitors for α4β1 on Jurkat cells was evaluated from equilibrium binding measurements.

[2] = Pharmacokinetics in female Lewis rats, noncompartmental analysis; details: rat, in vivo
Protocol: Blood samples (250 μL/bleed) were obtained at specific timepoints after administration. For compound H, blood samples were drawn at 0, 8 minutes, 15 minutes, 30 minutes, and after 1 hour, 2, 4, 6, 8, 24, 32, 48, 72 and 168 hours following i.v. administration, and 1, 2, 4, 6, 8, 24, 32, 48, and 72 hours following s.c. administration. Serum samples were analyzed for compound H levels using an electrochemiluminescence assay. PK parameters were calculated from the […] data by noncompartmental analysis. PK parameters include CMAX (maximum serum concentration), tMAX (time to achieve maximum serum concentration), CL (systemic clearance), Vss (volume of distribution at steady state), t1/2 (terminal phase half-life), and bioavailability. Area under the curve (AUC) was calculated using the trapezoidal rule. Percent bioavailability was calculated from the following equation: (AUCextravascular/AUCIV)×(DoseIV/Doseextravascular)×100. For compound R^1, blood samples were drawn and analyzed as previously described (see Leone, D. R., et al. (2003) J. Pharmacol. Exp. Ther. 305:1150–1162).
Dilutions of test samples in 50 mM HEPES pH 7.5, 100 mM NaCl, 0.1% Triton X-100, 1 mM MnCl2, 1% rat plasma, 50 ng/mL α4β1 and 0.1 μg/mL ruthenium labeled mAb B5G10 were incubated at room temperature for 20 min. 0.5 nM A-biotin was added and samples were incubated for 60 minutes at room temperature. 50 μL of a 0.5 mg/mL solution of Dynabeads M-280 Streptavidin beads (Cat No. 402–175-02, Igen, Inc., Gaithersburg, Md.) that have been prepared in assay buffer containing 8% rat plasma was added and the samples were incubated for 30 minutes at room temperature with constant mixing. 150 μL of Origen assay buffer was added and samples were analyzed in a model 1100–1000 Origen analyzer (Igen, Inc) following the manufacturer's instructions. Concentrations of compound H were interpolated from a standard curve generated with compound H that had been diluted with plasma.
The pharmacokinetic properties of compounds H and R were evaluated by noncompartmental analysis following i.v. and s.c. administration in female Lewis rats (FIG. 2). […] Compound R was rapidly cleared from circulation.

α4β1 [3] = target: T1, α4β1; assay: Kinetic binding to α4β1 on Jurkat cells, competition with 35S-B as probe for free α4β1; set-up: endogenous in cells; host or cells: Jurkat human T-cell line; details: for koff: read-out: koff/10^−4; for kon: read-out: kon/10^6; for Kd: calculated from on- and off-rate constants
Protocol: All cells were periodically monitored for high integrin surface expression by FACS analysis. The binding of the various inhibitors to α4β1 were assessed on Jurkat cells by competition using radioactive ^35S-B as a reporter for a 1 occupancy. Jurkat cells were pelleted by centrifugation, washed two times with TBS (50 mM Tris HCl, 150 mM NaCl, 0.1% bovine serum albumin, 2 mM glucose, 10 mM HEPES pH 7.4), suspended at approximately 2×10^6 cells/mL in TBS, and counted using a Neubauer hemocytometer. The cells were further diluted 2×10^6 cells/mL with TBS containing 1 mM CaCl2 and 1 mM MgCl2 and treated with serial dilutions of test compound for 1 hour, and then 5 nM ^35S-B, an amount sufficient to bind all unoccupied receptors, was added for 10 minutes before measuring the bound counts. The cells were then pelleted by centrifugation, resuspended in 100 μL of TBS plus Mn^2+, and transferred to a scintillation vial containing 2.9 mL of ScintiVerse II (Fisher Scientific). Cell-associated radioactivity was quantified by scintillation counting. All studies were performed in siliconized 1.5 mL eppendorf tubes with a standard 1 mL sample volume. Each condition was tested in at least two independent studies. Non-specific binding of ^35S-B to cells was assessed at each cell density and ^35S-B concentration in TBS but in the absence of added metal ion. Specific counts bound were calculated by subtracting non specific counts from total counts bound. Counts bound under these conditions measures integrin that is not occupied by the test compound and is therefore free to bind the ^35S-B. The competition format was also used for kinetic binding studies. Binding and dissociation constants were calculated from α4β1 that remained free to bind the ^35S-B after treatment with test compound.
The affinities of the PEGylated inhibitors for α4β1 were calculated from association and disassociation rate constants using a kinetic analysis. For these studies, Jurkat cells expressing α4β1 (75,000 copies/cell) were treated with the inhibitors and then ^35S-B was added as a probe to detect free α4β1. The levels of bound inhibitor were calculated from a measure of total ^35S-B bound in the absence of added inhibitor and counts bound following inhibitor treatment.

[4] = IC50, buffer with 1 mM Ca2+ and 1 mM Mg2+, no plasma

T1 sequence (P13612 34-1032): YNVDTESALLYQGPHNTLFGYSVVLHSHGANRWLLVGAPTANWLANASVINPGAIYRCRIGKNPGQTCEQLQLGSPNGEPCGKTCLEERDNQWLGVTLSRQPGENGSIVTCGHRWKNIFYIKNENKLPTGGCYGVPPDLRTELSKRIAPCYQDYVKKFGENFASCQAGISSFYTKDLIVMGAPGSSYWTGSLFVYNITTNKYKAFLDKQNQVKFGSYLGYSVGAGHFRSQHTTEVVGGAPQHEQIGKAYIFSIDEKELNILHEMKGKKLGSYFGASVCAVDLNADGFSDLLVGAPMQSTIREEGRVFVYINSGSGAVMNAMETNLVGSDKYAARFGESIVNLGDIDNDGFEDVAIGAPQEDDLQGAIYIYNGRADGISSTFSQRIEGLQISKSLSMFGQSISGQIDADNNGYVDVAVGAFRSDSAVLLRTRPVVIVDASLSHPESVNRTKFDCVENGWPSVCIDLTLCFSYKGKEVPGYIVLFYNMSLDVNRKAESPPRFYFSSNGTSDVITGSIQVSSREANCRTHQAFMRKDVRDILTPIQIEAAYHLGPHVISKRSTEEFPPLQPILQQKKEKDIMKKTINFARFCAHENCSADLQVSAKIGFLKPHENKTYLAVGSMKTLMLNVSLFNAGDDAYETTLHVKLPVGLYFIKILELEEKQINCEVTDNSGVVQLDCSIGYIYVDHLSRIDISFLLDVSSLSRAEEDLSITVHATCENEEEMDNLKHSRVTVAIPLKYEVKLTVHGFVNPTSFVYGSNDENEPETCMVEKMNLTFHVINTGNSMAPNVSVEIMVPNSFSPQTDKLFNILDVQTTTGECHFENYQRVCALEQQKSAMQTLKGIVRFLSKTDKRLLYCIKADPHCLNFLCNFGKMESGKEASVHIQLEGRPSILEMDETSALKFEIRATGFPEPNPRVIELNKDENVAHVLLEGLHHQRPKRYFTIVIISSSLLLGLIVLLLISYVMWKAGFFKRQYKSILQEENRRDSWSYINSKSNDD
T1 sequence (P05556 21-798): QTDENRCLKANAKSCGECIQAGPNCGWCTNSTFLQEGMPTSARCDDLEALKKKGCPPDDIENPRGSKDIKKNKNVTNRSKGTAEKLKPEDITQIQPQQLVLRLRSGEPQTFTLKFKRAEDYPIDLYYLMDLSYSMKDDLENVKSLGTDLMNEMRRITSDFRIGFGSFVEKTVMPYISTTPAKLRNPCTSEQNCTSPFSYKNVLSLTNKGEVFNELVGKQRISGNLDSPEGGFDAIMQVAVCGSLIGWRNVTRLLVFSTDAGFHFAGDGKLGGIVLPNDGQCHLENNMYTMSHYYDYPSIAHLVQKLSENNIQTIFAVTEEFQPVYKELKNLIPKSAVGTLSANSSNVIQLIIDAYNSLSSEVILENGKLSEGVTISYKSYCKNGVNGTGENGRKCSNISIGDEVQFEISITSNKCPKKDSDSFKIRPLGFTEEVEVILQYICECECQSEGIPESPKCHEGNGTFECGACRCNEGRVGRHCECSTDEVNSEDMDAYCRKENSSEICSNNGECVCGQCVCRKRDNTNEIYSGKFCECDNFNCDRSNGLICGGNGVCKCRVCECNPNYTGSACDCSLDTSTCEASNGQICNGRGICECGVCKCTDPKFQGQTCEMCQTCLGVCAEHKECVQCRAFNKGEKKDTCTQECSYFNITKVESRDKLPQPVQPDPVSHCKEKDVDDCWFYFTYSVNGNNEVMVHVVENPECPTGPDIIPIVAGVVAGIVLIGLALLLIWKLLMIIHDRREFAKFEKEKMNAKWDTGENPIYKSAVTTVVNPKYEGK

SMILES: Cc1ccccc1NC(=O)Nc1ccc(CC(=O)N(C)[C@@H](CC(C)C)C(=O)NCC[C@H](NC(=O)[C@@H]2CCCN2S(=O)(=O)c2cc(Cl)cc(Cl)c2)C(=O)O)cc1 [Compound R, 2S-{[1-(3,5-dichloro-benzenesulfonyl)-pyrrolidine-2S-carbonyl]-amino}-4-[4-methyl-2S-(methyl-{2-[4-(3-o-tolyl-ureido)-phenyl]-acetyl}-amino)-pentanoylamino]-butyric acid]
IC50 (α4β1 [1]; IC50(HP), 100% human plasma): 0.8 nM
IC50 (α4β1 [1]; [4]): 0.15 nM
AUC ([2]; iv, 1 mg/kg): 2300 ng·h/mL
Cmax ([2]; iv, 1 mg/kg): 13100 ng/mL
Tmax ([2]; iv, 1 mg/kg): 0 min
Vd ([2]; iv, 1 mg/kg): 0.168 L/kg
clearance ([2]; iv, 1 mg/kg): 7.1 mL/min/kg
half-life ([2]; iv, 1 mg/kg): 66 min
AUC ([2]; sc, 10 mg/kg): 6100 ng·h/mL
CL ([2]; sc, 10 mg/kg): 1630 mL/h/kg
Cmax ([2]; sc, 10 mg/kg): 780 ng/mL
Tmax ([2]; sc, 10 mg/kg): 30 min
bioavailability ([2]; sc, 10 mg/kg): 20%
half-life ([2]; sc, 10 mg/kg): 162 min
time >100 ng/mL blood levels were maintained ([2]; sc, 10 mg/kg): 12 h
koff (α4β1 [3]; Jurkat cells, 35S-B probe): 1.2e-05 s⁻¹
kon (α4β1 [3]; Jurkat cells, 35S-B probe): 1.5e+06 M⁻¹ s⁻¹
Kd (α4β1 [3]; Jurkat cells): 9 pM

IC50 (α4β1 [1]; IC50(HP), 100% human plasma): 1.5 nM
IC50 (α4β1 [1]; [4]): 0.21 nM
half-life ([2]; iv): 150 min
bioavailability ([2]; sc): 21%
% bound Ca2+Mg2+ 30 min (α4β1 [3]; Ca2+Mg2+, 30 min): >90%
On-rate (α4β1 [3]; Jurkat cells, 35S-B probe): 4e+06 M⁻¹ s⁻¹
koff (α4β1 [3]; Jurkat cells, 35S-B probe): 1.9e-05 s⁻¹
kon (α4β1 [3]; Jurkat cells, 35S-B probe): 4e+06 M⁻¹ s⁻¹
% bound Mn2+ 60 min (α4β1 [3]; Mn2+, 60 min): >95%
Kd (α4β1 [3]; Jurkat cells): 5 pM
SMILES: Cc1ccccc1NC(=O)Nc1ccc(CC(=O)N(C)[C@@H](CC(C)C)C(=O)NCC[C@H](NC(=O)C2CCCN2S(=O)(=O)c2ccccc2)C(=O)O)cc1 (stereo partly drawn) [Compound B, 2S-[(1-benzenesulfonyl-pyrrolidine-2S-carbonyl)-amino]-4-[4-methyl-2S-(methyl-{2-[4-(3-o-tolyl-ureido)-phenyl]-acetyl}-amino)-pentanoylamino]-butyric acid]
